Laboratory results published in US20240269139A1, “COMPOUNDS FOR TARGETED PROTEIN DEGRADATION OF KINASES” (DANA-FARBER CANCER INSTITUTE, INC., priority 2020, published 2024).
Like-named read-outs stand apart in the source and are kept apart here.

Assays:
Assay type in all cases: cell-based
[1] = biological target: protein kinases (human kinome) (Homo sapiens, UniProt P45983); settings: for logFC MAPK8 (P45983): Experiment wp152
[2] = biological target: protein kinases (human kinome) (Homo sapiens, UniProt Q6P5Z2)
[3] = biological target: T1, protein kinases (human kinome) (Homo sapiens, UniProt Q13163); settings: experiment wp071
T1 sequence (Q13163 1-448): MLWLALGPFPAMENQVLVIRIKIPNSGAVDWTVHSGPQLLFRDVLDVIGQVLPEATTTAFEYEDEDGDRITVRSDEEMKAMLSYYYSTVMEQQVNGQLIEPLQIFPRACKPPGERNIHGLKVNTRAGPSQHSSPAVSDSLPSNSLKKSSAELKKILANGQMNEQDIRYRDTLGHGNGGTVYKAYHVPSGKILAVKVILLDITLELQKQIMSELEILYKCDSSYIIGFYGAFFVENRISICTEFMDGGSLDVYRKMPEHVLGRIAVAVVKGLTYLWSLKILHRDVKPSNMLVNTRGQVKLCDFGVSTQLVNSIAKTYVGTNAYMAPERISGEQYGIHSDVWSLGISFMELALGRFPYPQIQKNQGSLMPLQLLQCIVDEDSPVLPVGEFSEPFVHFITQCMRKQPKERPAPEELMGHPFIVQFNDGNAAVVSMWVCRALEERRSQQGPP

[4] = biological target: protein kinases (human kinome) (Homo sapiens, UniProt Q6JQN1); settings: ACAD10 (Q6JQN1); experiment wp056
[5] = biological target: T2, protein kinases (human kinome) (Homo sapiens, UniProt O43318); settings: MAP3K7 (O43318)
T2 sequence (O43318 1-606): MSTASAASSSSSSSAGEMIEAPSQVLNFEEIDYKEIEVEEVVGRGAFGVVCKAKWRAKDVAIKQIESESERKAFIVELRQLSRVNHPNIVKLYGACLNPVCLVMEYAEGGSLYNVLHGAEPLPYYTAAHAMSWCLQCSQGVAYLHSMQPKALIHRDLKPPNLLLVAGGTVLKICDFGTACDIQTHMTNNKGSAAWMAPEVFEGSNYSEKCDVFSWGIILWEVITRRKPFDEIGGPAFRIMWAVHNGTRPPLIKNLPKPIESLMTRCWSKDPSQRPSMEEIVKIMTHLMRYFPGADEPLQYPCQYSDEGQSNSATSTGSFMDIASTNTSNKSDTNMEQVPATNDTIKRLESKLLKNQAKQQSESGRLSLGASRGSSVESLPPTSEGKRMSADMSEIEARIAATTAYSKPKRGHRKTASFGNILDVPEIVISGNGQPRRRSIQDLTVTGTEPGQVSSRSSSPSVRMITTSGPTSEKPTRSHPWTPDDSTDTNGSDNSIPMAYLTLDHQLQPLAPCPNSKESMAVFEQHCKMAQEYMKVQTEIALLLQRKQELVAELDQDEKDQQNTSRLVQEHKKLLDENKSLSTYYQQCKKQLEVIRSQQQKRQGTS

[6] = biological target: protein kinases (human kinome) (Homo sapiens, UniProt O60307); settings: experiment wp107
[7] = biological target: protein kinases (human kinome) (Homo sapiens, UniProt Q96RU7)
[8] = biological target: protein kinases (human kinome) (Homo sapiens, UniProt Q86Z02); settings: experiment wp133, 4 hr
[9] = biological target: protein kinases (human kinome) (Homo sapiens, UniProt P51957); settings: experiment wp146
[10] = biological target: protein kinases (human kinome) (Homo sapiens, UniProt P51956); settings: experiment wp146
[11] = Experiment wp114, direction of change down

Sequence of protein kinases (human kinome) (Homo sapiens, UniProt P45983) (P45983 whole entry): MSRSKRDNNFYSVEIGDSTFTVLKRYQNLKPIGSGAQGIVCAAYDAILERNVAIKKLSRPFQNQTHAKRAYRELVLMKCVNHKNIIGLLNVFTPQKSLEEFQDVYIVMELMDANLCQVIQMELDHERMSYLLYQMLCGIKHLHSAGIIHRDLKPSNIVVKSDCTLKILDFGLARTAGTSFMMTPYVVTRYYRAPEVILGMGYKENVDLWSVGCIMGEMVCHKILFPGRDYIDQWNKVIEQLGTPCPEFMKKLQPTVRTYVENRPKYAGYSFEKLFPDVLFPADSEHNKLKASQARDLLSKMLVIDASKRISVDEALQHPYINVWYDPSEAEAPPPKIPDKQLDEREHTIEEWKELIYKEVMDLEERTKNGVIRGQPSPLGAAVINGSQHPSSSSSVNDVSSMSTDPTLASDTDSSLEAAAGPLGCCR
Sequence of protein kinases (human kinome) (Homo sapiens, UniProt Q86Z02) (Q86Z02 whole entry): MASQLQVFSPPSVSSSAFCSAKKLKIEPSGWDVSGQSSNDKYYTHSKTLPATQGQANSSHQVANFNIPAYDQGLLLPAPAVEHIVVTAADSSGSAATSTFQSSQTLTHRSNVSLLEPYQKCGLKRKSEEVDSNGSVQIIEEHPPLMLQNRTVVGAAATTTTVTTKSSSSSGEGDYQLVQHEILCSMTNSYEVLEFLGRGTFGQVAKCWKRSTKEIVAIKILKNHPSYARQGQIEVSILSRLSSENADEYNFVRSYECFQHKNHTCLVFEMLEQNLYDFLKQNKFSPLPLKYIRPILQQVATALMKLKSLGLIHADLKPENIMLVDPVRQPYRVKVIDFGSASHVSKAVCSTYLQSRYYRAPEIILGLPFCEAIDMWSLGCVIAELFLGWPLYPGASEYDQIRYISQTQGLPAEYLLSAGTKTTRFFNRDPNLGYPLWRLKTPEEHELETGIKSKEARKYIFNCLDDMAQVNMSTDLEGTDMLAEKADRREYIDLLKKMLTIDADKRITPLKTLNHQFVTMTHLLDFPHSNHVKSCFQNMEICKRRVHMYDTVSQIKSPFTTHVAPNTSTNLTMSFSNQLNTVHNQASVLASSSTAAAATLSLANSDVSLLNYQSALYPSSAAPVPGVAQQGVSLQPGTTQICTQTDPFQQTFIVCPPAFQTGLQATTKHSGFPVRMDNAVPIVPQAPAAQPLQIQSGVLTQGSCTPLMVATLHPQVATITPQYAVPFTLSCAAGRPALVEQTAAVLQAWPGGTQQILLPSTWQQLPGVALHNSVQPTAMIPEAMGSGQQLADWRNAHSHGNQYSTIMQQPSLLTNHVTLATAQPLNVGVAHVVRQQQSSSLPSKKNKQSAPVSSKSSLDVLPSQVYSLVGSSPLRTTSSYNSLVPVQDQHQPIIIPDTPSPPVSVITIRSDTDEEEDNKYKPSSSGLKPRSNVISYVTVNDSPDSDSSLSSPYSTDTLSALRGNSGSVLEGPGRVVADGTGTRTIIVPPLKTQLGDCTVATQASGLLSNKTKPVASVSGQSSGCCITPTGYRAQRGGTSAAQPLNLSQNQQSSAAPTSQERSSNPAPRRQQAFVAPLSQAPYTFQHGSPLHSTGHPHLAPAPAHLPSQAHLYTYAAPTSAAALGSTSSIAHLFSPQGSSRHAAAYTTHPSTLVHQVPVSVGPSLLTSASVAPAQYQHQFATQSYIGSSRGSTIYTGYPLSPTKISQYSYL
Sequence of protein kinases (human kinome) (Homo sapiens, UniProt Q96RU7) (Q96RU7 whole entry): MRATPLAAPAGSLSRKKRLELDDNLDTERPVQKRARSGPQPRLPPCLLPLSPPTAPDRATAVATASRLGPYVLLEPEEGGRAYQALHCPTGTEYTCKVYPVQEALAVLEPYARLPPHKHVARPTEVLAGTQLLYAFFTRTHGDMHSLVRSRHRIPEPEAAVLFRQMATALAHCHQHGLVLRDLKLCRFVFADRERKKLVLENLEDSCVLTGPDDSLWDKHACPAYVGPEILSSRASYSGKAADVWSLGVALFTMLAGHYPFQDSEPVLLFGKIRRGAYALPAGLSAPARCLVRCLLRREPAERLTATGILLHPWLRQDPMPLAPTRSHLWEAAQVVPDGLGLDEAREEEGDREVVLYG
Sequence of protein kinases (human kinome) (Homo sapiens, UniProt P51956) (P51956 whole entry): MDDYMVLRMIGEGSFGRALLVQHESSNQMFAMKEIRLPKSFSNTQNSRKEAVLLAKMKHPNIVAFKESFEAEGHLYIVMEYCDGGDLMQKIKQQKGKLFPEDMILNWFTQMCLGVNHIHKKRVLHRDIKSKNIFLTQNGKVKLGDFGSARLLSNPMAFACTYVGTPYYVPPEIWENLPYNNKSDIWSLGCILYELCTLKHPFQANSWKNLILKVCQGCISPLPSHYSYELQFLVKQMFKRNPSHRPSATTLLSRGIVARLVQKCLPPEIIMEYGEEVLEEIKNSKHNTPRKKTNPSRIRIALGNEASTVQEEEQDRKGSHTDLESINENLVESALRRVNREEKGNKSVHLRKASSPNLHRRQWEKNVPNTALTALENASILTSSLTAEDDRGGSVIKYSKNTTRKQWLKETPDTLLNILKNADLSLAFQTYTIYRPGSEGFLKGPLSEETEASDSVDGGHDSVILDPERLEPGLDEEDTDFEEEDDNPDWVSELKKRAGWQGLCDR
Sequence of protein kinases (human kinome) (Homo sapiens, UniProt O60307) (O60307 whole entry): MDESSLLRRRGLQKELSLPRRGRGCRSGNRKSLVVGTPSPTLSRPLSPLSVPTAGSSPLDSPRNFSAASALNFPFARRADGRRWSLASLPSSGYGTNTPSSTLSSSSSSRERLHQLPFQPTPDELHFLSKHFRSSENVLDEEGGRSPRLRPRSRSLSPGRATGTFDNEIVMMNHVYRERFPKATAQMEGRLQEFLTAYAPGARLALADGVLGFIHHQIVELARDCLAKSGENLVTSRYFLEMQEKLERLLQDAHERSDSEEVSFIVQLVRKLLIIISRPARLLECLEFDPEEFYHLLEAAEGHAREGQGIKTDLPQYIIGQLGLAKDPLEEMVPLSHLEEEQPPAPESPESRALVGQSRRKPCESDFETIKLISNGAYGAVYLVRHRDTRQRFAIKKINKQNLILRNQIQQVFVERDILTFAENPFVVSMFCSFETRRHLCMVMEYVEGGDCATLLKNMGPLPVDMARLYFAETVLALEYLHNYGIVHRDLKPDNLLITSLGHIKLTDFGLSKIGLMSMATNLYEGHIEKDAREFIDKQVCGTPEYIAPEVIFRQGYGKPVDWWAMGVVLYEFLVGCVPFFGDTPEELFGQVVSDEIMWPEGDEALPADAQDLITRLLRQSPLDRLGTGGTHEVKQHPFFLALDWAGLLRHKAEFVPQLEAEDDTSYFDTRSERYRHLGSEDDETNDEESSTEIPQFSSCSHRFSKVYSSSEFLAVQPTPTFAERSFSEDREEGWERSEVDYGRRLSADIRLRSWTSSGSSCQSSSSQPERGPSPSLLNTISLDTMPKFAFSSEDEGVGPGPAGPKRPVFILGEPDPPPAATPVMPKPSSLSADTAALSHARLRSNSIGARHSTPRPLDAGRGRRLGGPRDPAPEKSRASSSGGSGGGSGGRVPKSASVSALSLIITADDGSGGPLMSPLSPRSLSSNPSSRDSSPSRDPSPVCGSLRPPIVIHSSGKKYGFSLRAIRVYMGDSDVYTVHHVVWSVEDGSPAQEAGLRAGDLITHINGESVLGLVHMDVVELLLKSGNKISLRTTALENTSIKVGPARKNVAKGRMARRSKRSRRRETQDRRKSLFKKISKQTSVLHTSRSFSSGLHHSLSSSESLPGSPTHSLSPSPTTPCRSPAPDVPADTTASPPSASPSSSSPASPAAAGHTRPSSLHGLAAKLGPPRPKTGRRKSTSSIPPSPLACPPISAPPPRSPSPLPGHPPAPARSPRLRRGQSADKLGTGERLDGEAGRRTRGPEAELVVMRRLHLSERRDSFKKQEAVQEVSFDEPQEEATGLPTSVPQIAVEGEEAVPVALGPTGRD
Sequence of protein kinases (human kinome) (Homo sapiens, UniProt Q6P5Z2) (Q6P5Z2 whole entry): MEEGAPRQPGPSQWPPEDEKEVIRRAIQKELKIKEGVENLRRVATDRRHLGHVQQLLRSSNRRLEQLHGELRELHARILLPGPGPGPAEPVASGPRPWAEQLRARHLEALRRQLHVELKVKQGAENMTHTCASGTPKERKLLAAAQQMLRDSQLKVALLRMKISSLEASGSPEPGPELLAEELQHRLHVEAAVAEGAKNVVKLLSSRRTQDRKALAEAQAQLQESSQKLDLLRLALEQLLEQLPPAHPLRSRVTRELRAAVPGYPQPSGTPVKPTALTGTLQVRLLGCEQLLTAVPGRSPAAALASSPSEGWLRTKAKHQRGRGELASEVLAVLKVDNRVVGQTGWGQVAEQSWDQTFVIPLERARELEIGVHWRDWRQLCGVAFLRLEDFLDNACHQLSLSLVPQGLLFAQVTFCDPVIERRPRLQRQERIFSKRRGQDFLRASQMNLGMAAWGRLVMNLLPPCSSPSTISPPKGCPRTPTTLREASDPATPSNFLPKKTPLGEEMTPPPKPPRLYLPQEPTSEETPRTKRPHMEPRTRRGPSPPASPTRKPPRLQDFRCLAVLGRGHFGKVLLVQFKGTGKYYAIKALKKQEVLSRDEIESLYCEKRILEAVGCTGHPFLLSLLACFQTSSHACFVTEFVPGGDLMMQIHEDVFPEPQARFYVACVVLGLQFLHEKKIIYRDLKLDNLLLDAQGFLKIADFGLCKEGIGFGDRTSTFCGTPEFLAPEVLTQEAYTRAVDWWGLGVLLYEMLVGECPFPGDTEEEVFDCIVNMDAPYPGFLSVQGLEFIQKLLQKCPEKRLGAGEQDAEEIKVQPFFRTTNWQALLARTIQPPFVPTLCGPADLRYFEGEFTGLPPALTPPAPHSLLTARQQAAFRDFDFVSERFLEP

Q: What does the source list for `Cc1ccc(NC(=O)c2cccc(C(F)(F)F)c2)cc1N1Cc2cnc(Nc3ccc(N4CCN(Cc5cn(CCCCCOc6cccc7c6C(=O)N(C6CCC(=O)NC6=O)C7=O)nn5)CC4)nc3)nc2N(C)C1=O` (centres unmarked) [DB0646, N-(3-(7-((6-(4-((1-(5-((2-(2,6-Dioxopiperidin-3-yl)-1,3-dioxoisoindolin-4-yl)oxy)pentyl)-1H-1,2,3-triazol-4-yl)methyl)piperazin-1-v)pyridin-3-yl)amino)-1-methyl-2-oxo-1,4-dihydropyrimido[4,5-d]pyrimidin-3(2H)-yl)-4-methylphenyl)-3-(trifluoromethyl)benzamide]?
A: logFC MAPK8 (P45983) ([1]; direction down): −0.8433; logFC MAPK8 (P45983) ([1]; direction of change down): −0.8433; logFC MAPK8 (P45983-1) ([1]; Experiment wp172, direction down): −0.376; logFC MAPK8 (P45983-1) ([1]; experiment wp172, direction of change down): −0.376

Q: With `Cc1ncsc1-c1ccc([C@H](C)NC(=O)[C@@H]2C[C@@H](O)CN2C(=O)[C@@H](NC(=O)CCOCCOCCN2CCN(c3ccc(Nc4ncc(Cl)c(Nc5ccccc5S(=O)(=O)C(C)C)n4)cc3)CC2)C(C)(C)C)cc1` [FMF.06.098.1] as the compound, how does the “logFC PKN3 (Q6P5Z2)” value [2, 11] read?
A: −0.451

Q: And the “logFC PKN3” value ([2]; protein PKN3 (Q6P5Z2), experiment wp114, down)?
A: −0.451

Q: For `Nc1ncnc2c1c(-c1ccc(Oc3ccccc3)cc1)nn2[C@H]1CC[C@H](N2CCN(CCOCCNC(=O)CNc3cccc4c3C(=O)N(C3CCC(=O)NC3=O)C4=O)CC2)CC1` (some centres unmarked) [SB1.G.181], which logFC ([3]; MAP2K5 (Q13163-1)) is on record?
A: −1.138

Q: What about the “logFC of MAP2K5 (Q13163-1)” value [3] of the same compound?
A: −1.138

Q: Which results are given for `Cc1ccc(C(=O)Nc2ccc(CN3CCN(CCCOCCOCCOCCNC(=O)COc4cccc5c4C(=O)N(C4CCC(=O)NC4=O)C5=O)CC3)c(C(F)(F)F)c2)cc1C#Cc1cnc2cccnn12` (centres unmarked) [SB1.G.187]?
A: logFC [4]: −0.3838; logFC ([5]; experiment wp056): −1.003; logFC ([5]; experiment wp056, direction down): −1.003; logFC ([5]; experiment wp103): −1.374; logFC ([5]; experiment wp103, direction down): −1.374; logFC ([5]; experiment wp105): −1.031; logFC ([5]; experiment wp105, direction down): −1.031; logFC ([5]; experiment wp107): −1.33; logFC ([5]; experiment wp107, direction down): −1.33; logFC ([5]; experiment wp172): −0.5772; logFC ([5]; experiment wp172, direction down): −0.5772

Q: What does the source list for `CC(C)S(=O)(=O)c1ccccc1Nc1nc(Nc2ccc(N3CCN(CCOCCNC(=O)CNc4cccc5c4C(=O)N(C4CCC(=O)NC4=O)C5=O)CC3)cc2)ncc1Cl` (centres unmarked) [SK.3.91]?
A: logFC MAST3 (O60307) ([6]; direction of change down): −0.4984; logFC MAST3 ([6]; protein MAST3 (O60307), down): −0.4984; logFC TRIB3 (Q96RU7) [7, 11]: −1.211; logFC TRIB3 ([7]; protein TRIB3 (Q96RU7), experiment wp114, down): −1.211; logFC HIPK1 (Q86Z02) ([8]; direction of change down): −0.4009; logFC HIPK1 ([8]; protein HIPK1 (Q86Z02), down): −0.4009

Q: Which results are given for `Cc1cc(Nc2ncc(Br)c(Nc3cccc(F)c3C(N)=O)n2)ccc1S(=O)(=O)NCCOCCOCCOCCOCCNc1cccc2c1C(=O)N(C1CCC(=O)NC1=O)C2=O` (centres unmarked) [TMX.02.174]?
A: logFC NEK4 (P51957) ([9]; direction of change down): −0.9508; logFC NEK4 ([9]; protein NEK4 (P51957), down): −0.9508; logFC NEK3 (P51956) ([10]; direction of change down): −0.8497; logFC NEK3 ([10]; protein NEK3 (P51956), down): −0.8497
